{"source": "patent US9975930B2", "about": "“Lantibiotic derivatives and process for their preparation” (NAICONS S.r.l., priority 2012, dated 2018)", "assay_in_all_cases": "MIC by broth microdilution", "key": {"[1]": {"system": "Staphylococcus aureus Met-R", "type": "cell-based", "details": "code 1400; CAMHB broth; 20-24 hours at 35° C."}, "E. faecalis VanS": {"system": "E. faecalis VanS", "type": "cell-based", "details": "code 559, CAMHB broth"}, "E. faecium VanA": {"system": "E. faecium VanA", "type": "cell-based, Enterococcus faecium", "details": "code 569; CAMHB broth; 20-24 hours at 35° C."}, "S. aureus ATCC19636": {"system": "S. aureus ATCC19636", "type": "cell-based, Staphylococcus aureus", "details": "code 819, CAMHB broth"}, "[2]": {"system": "Staphylococcus aureus Met-S ATCC6538P", "type": "cell-based", "details": "code 100; CAMHB broth; 20-24 hours at 35° C."}, "E. faecalis VanA": {"system": "E. faecalis VanA", "type": "cell-based", "details": "code 560; CAMHB broth; 20-24 hours at 35° C."}, "[3]": {"system": "Enterococcus faecium VanS", "type": "cell-based", "details": "code 568, CAMHB broth"}, "Candida albicans": {"system": "Candida albicans", "type": "cell-based", "details": "code 145; RPMI-1640; 48 hours"}, "S. aureus ATCC 25923": {"system": "S. aureus ATCC 25923", "type": "cell-based, Staphylococcus aureus", "details": "CAMHB broth; 20-24 hours at 35° C."}, "S. pyogenes": {"system": "S. pyogenes", "type": "cell-based", "details": "code 49; Todd Hewitt broth; 20-24 hours at 35° C."}}, "data": [{"compound": "CN[C@H](CC(C)C)C(=O)N[C@H]1C(=O)N[C@@H](CC(N)=O)C(=O)N[C@H]2C(=O)N[C@H]3C(=O)N[C@H](C(=O)N[C@H](C(=O)O)c4cc(O)cc(O)c4-c4cc3ccc4O)[C@H](O)c3ccc(c(Cl)c3)Oc3cc2cc(c3O[C@@H]2O[C@H](CO)[C@@H](O)[C@H](O)[C@H]2O[C@H]2C[C@](C)(N)[C@H](O)[C@H](C)O2)Oc2ccc(cc2Cl)[C@H]1O", "note": "[VA, vancomycin]", "values": [{"measurement": "Minimal inhibitory concentration (MIC)", "setting": "[1]", "result": 0.5}, {"measurement": "Minimal inhibitory concentration (MIC)", "setting": "E. faecalis VanS; +serum 30% (bovine serum)", "result": 2}, {"measurement": "Minimal inhibitory concentration (MIC)", "setting": "E. faecalis VanS; 20-24 hours at 35° C.", "result": 1}, {"measurement": "Minimal inhibitory concentration (MIC)", "setting": "E. faecium VanA", "result": ">128"}, {"measurement": "Minimal inhibitory concentration (MIC)", "setting": "S. aureus ATCC19636; +serum 30% (bovine serum)", "result": 1}, {"measurement": "Minimal inhibitory concentration (MIC)", "setting": "S. aureus ATCC19636; 20-24 hours at 35° C.", "result": 0.5}, {"measurement": "Minimal inhibitory concentration (MIC)", "setting": "[2]", "result": 0.25}, {"measurement": "Minimal inhibitory concentration (MIC)", "setting": "E. faecalis VanA", "result": 2}, {"measurement": "Minimal inhibitory concentration (MIC)", "setting": "[3]; +serum 30% (bovine serum)", "result": 2}, {"measurement": "Minimal inhibitory concentration (MIC)", "setting": "[3]; 20-24 hours at 35° C.", "result": 2}, {"measurement": "Minimal inhibitory concentration (MIC)", "setting": "Candida albicans", "result": ">128"}, {"measurement": "Minimal inhibitory concentration (MIC)", "setting": "S. aureus ATCC 25923", "result": 1}, {"measurement": "Minimal inhibitory concentration (MIC)", "setting": "S. pyogenes", "result": 0.25}]}]}
